This note sets out measurements from US9006433B2, “Substituted pyrimidines” (Merck Sharp & Dohme Corp., priority 2010, dated 2015).

T1 sequence (Q9GZT9 whole entry, species assumed): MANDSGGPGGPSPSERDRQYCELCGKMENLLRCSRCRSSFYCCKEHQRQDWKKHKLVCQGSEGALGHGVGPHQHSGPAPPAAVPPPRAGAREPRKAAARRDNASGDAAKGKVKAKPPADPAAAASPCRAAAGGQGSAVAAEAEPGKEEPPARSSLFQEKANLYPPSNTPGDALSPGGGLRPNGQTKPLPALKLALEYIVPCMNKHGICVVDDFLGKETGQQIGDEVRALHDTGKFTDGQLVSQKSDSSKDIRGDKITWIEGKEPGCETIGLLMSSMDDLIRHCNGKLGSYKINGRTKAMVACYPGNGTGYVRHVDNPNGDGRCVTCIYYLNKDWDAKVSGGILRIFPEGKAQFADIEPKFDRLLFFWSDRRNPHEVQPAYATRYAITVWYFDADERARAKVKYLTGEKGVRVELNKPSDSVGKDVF

This test addresses T1, PHD2 (Homo sapiens, UniProt Q9GZT9).
T1 construct: FLAG-tagged full length PHD2 expressed in and purified from baculovirus-infected Sf9 cells; FLAG; made in house; host or cells: baculovirus-infected Sf9 cells
The experiment in a line: PHD2 inhibition assay (time resolved fluorescence, HIF-1α peptide hydroxylation / VHL complex detection). The test is classed as biochemical. To be noted: FLAG-tagged full length PHD2; 0.2 μM 2-oxoglutarate, 0.5 μM HIF-1α peptide. How it is done:
To each well of a 96-well plate was added 1 μL of test compound in DMSO and 20 μl of assay buffer (50 mM Iris pH 7.4/0.01% Tween-20/0.1 mg/ml bovine serum albumin/10 μM ferrous sulfate/1 mM sodium ascorbate/20 μg/ml catalase) containing 0.15 μg/ml FLAG-tagged full length PHD2 expressed in and purified from baculovirus-infected Sf9 cells. After a 30 min preincubation at room temperature, the enzymatic reactions were initiated by the addition of […] of substrates (final concentrations of 0.2 μM 2-oxoglutarate and 0.5 μM HIF-1α peptide biotinyl-DLDLEMLAPYIPMDDDFQL (SEQ ID NO:1)). After 2 hr at room temperature, the reactions were terminated and signals were developed by the addition of a 25 μL quench/detection mix to a final concentration of 1 mM ortho-phenanthroline, 0.1 mM EDTA, 0.5 nM anti-(His)6 LANCE reagent (Perkin-Elmer Life Sciences), 100 nM AF647-labeled streptavidin (Invitrogen), and 2 μg/ml (His)-6-VHL complex (S. Tan(2001) Protein Expr. Purif. 21, 224-234). The ratio of time resolved fluorescence signals at 665 and 620 nm was determined, and percent inhibition was calculated relative to an uninhibited control sample run in parallel.
The IC50 is the point on the concentration scale where inhibition reaches its midpoint. In the case of `CC(C)C(C(=O)Nc1cnc(-n2cccn2)nc1O)c1ccccc1` (stereo not drawn) [Compound 3-35, N-(4-hydroxy-2-(1H-pyrazol-1-yl)pyrimidin-5-yl)-3-methyl-2-phenylbutanamide], the IC50 was 20 to 100 nM.

As for `CCC(C)C(C(=O)Nc1cnc(-n2cccn2)nc1O)c1ccccc1` (stereo not drawn) [Compound 3-36, N-(4-hydroxy-2-(1H-pyrazol-1-yl)pyrimidin-5-yl)-3-methyl-2-phenylpentanamide], the IC50 lay in the range of 0.5 to 20 nM.

`CC(C)(C(=O)Nc1cnc(-n2cccn2)nc1O)c1ccccc1` [Compound 3-37, N-(4-hydroxy-2-(1H-pyrazol-1-yl)pyrimidin-5-yl)-2-methyl-2-phenylpropanamide] had an IC50 of 0.5 to 20 nM.

As for `O=C(Nc1cnc(-n2cccn2)nc1O)C1(c2ccccc2)CC1` [Compound 3-38, N-(4-hydroxy-2-(1H-pyrazol-1-yl)pyrimidin-5-yl)-1-phenylcyclopropanecarboxamide], the IC50 fell in the range of 20 to 100 nM.

Turning to `O=C(Cc1cccc2ccccc12)Nc1cnc(-n2cccn2)nc1O` [Compound 3-39, N-(4-hydroxy-2-(1H-pyrazol-1-yl)pyrimidin-5-yl)-2-(naphthalen-1-yl)acetamide], the half-maximal inhibitory concentration (IC50) was 0.5 to 20 nM.

For the molecule `O=C(Cc1ccc2c(c1)OCO2)Nc1cnc(-n2cccn2)nc1O` [Compound 3-40, 2-(benzo[d][1,3]dioxol-5-yl)-N-(4-hydroxy-2-(1H-pyrazol-1-yl)pyrimidin-5-yl)acetamide], the half-maximal inhibitory concentration (IC50) lay within 0.5 to 20 nM.

On to `O=C(Cc1ccncc1)Nc1cnc(-n2cccn2)nc1O` [Compound 3-41, N-(4-hydroxy-2-(1H-pyrazol-1-yl)pyrimidin-5-yl)-2-(pyridin-4-yl)acetamide], for which the half-maximal inhibitory concentration (IC50) fell in the range of 20 to 100 nM.

In the case of `O=C(Cc1ccc(-c2ccccc2)cc1)Nc1cnc(-n2cccn2)nc1O` [Compound 3-42, 2-(biphenyl-4-yl)-N-(4-hydroxy-2-(1H-pyrazol-1-yl)pyrimidin-5-yl)acetamide], the half-maximal inhibitory concentration (IC50) fell in the range of 0.5 to 20 nM.

The molecule `CCCCCCC(=O)Nc1cnc(-n2cccn2)nc1O` [Compound 3-43, N-(4-hydroxy-2-(1H-pyrazol-1-yl)pyrimidin-5-yl)heptanamide] registered an IC50 of 0.5 to 20 nM.

`O=C(CCc1ccccc1)Nc1cnc(-n2cccn2)nc1O` [Compound 3-44, N-(4-hydroxy-2-(1H-pyrazol-1-yl)pyrimidin-5-yl)-3-phenylpropanamide] gave a half-maximal inhibitory concentration (IC50) of 20 to 100 nM.

Turning to `O=C(CCCc1ccccc1)Nc1cnc(-n2cccn2)nc1O` [Compound 3-45, N-(4-hydroxy-2-(1H-pyrazol-1-yl)pyrimidin-5-yl)-4-phenylbutanamide], the IC50 lay within 0.5 to 20 nM.

In turn, `O=C(Nc1cnc(-n2cccn2)nc1O)C1CCCCC1` [Compound 3-46, N-(4-hydroxy-2-(1H-pyrazol-1-yl)pyrimidin-5-yl)cyclohexanecarboxamide] had an IC50 of 20 to 100 nM.

`CC(C)(C)OC(=O)N1CCC(C(=O)Nc2cnc(-n3cccn3)nc2O)CC1` [Compound 3-47, tert-butyl4-(4-hydroxy-2-(1H-pyrazol-1-yl)pyrimidin-5-ylcarbamoyl)piperidine-1-carboxylate] registered a concentration for half-maximal inhibition (IC50) of 0.5 to 20 nM.

For `O=C(CC1CCCCC1)Nc1cnc(-n2cccn2)nc1O` [Compound 3-48, 2-cyclohexyl-N-(4-hydroxy-2-(1H-pyrazol-1-yl)pyrimidin-5-yl)acetamide], the IC50 lay within 0.5 to 20 nM.

With `CC(C)(C)OC(=O)N1CCCC(C(=O)Nc2cnc(-n3cccn3)nc2O)C1` (stereo not drawn) [Compound 3-49, tert-butyl 3-(4-hydroxy-2-(1H-pyrazol-1-yl)pyrimidin-5-ylcarbamoyl)piperidine-1-carboxylate], the IC50 lay in the range of 100 to 10000 nM.

For the molecule `CC(C)(C)OC(=O)N1CCC(CC(=O)Nc2cnc(-n3cccn3)nc2O)CC1` [Compound 3-50, tert-butyl4-((4-hydroxy-2-(1H-pyrazol-1-yl)pyrimidin-5-ylcarbamoyl)methyl)piperidine-1-carboxylate], the half-maximal inhibitory concentration (IC50) was in the range of 20 to 100 nM.

`CC(C)(C)OC(=O)N1CCC(C(=O)Nc2cnc(-n3cccn3)nc2O)C1` (stereo not drawn) [Compound 3-51, tert-butyl 3-(4-hydroxy-2-(1H-pyrazol-1-yl)pyrimidin-5-ylcarbamoyl)pyrrolidine-1-carboxylate] had an IC50 of 20 to 100 nM.

On to `O=C(Nc1cnc(-n2cccn2)nc1O)C1CCCc2ccccc21` (stereo not drawn) [Compound 3-52, 1,2,3,4-tetrahydro-N-(4-hydroxy-2-(1H-pyrazol-1-yl)pyrimidin-5-yl)naphthalene-1-carboxamide], for which the 50% inhibitory concentration (IC50) is 0.5 to 20 nM.

In turn, `O=C(Nc1cnc(-n2cccn2)nc1O)C1CCc2ccccc21` (stereo not drawn) [Compound 3-53, 2,3-dihydro-N-(4-hydroxy-2-(1H-pyrazol-1-yl)pyrimidin-5-yl)-1H-indene-1-carboxamide] had an IC50 of 0.5 to 20 nM.

On to `O=C(Nc1cnc(-n2cccn2)nc1O)C1CCc2ccccc2C1` (stereo not drawn) [Compound 3-54, 1,2,3,4-tetrahydro-N-(4-hydroxy-2-(1H-pyrazol-1-yl)pyrimidin-5-yl)naphthalene-2-carboxamide], for which the IC50 lay in the range of 20 to 100 nM.

In the case of `O=C(Nc1cnc(-n2cccn2)nc1O)C1Cc2ccccc2C1` [Compound 3-55, 2,3-dihydro-N-(4-hydroxy-2-(1H-pyrazol-1-yl)pyrimidin-5-yl)-1H-indene-2-carboxamide], the half-inhibitory concentration (IC50) lay within 0.5 to 20 nM.

In the case of `O=S(=O)(Nc1cnc(-n2cccn2)nc1O)c1ccc(Cl)cc1` [Compound 4-1, 4-chloro-N-[4-hydroxy-2-(1H-pyrazol-1-yl)pyrimidin-5-yl]benzenesulfonamide], the IC50 fell in the range of 20 to 100 nM.

`O=S(=O)(Cc1ccc(Cl)cc1)Nc1cnc(-n2cccn2)nc1O` [Compound 4-2, 1-(4-chlorophenyl)-N-[4-hydroxy-2-(1H-pyrazol-1-yl)pyrimidin-5-yl]methanesulfonamide] showed an IC50 of 20 to 100 nM.

In turn, `O=S(=O)(Nc1cnc(-n2cccn2)nc1O)c1cccc(Cl)c1` [Compound 4-3, 3-chloro-N-[4-hydroxy-2-(1H-pyrazol-1-yl)pyrimidin-5-yl]benzenesulfonamide] had a 50% inhibitory concentration (IC50) of 100 to 10000 nM.

In turn, `O=S(=O)(Cc1ccc(C(F)(F)F)cc1)Nc1cnc(-n2cccn2)nc1O` [Compound 4-4, N-[4-hydroxy-2-(1H-pyrazol-1-yl)pyrimidin-5-yl]-1-[4-(trifluoromethyl)phenyl]methanesulfonamide] came in with an IC50 of 100 to 10000 nM.

In the case of `O=C(Nc1ccccc1)Nc1cnc(-n2cccn2)nc1O` [Compound 5-1, 1-(4-hydroxy-2-(1H-pyrazol-1-yl)pyrimidin-5-yl)-3-phenylurea], the IC50 is 100 to 10000 nM.

`O=C(NCc1ccccc1)Nc1cnc(-n2cccn2)nc1O` [Compound 5-2, 1-benzyl-3-(4-hydroxy-2-(1H-pyrazol-1-yl)pyrimidin-5-yl)urea] had a half-inhibitory concentration (IC50) of 0.5 to 20 nM.

On to `CC(NC(=O)Nc1cnc(-n2cccn2)nc1O)c1ccccc1` (stereo not drawn) [Compound 5-3, 1-(4-hydroxy-2-(1H-pyrazol-1-yl)pyrimidin-5-yl)-3-(1-phenylethyl)urea], for which the half-maximal inhibitory concentration (IC50) lay in the range of 0.5 to 20 nM.

`O=C(Nc1cnc(-n2cccn2)nc1O)NC1CCCCC1` [Compound 5-4, 1-cyclohexyl-3-(4-hydroxy-2-(1H-pyrazol-1-yl)pyrimidin-5-yl)urea]: the IC50 fell in the range of 20 to 100 nM.

Molecule `O=C(Nc1cnc(-n2cccn2)nc1O)NC1CCCC1` [Compound 5-5, 1-cyclopentyl-3-(4-hydroxy-2-(1H-pyrazol-1-yl)pyrimidin-5-yl)urea] came in with an IC50 of 100 to 10000 nM.

In the case of `CC(C)(C)NC(=O)Nc1cnc(-n2cccn2)nc1O` [Compound 5-6, ert-butyl-3-(4-hydroxy-2-(1H-pyrazol-1-yl)pyrimidin-5-yl)urea], the IC50 was in the range of 100 to 10000 nM.

`O=C(Nc1cnc(-n2cccn2)nc1O)N(c1ccccc1)c1ccccc1` [Compound 5-7, 3-(4-hydroxy-2-(1H-pyrazol-1-yl)pyrimidin-5-yl)-1,1-diphenylurea]: the half-inhibitory concentration (IC50) fell in the range of 0.5 to 20 nM.

Molecule `CC(C)N(C(=O)Nc1cnc(-n2cccn2)nc1O)c1ccccc1` [Compound 5-8, 3-(4-hydroxy-2-(1H-pyrazol-1-yl)pyrimidin-5-yl)-1-isopropyl-1-phenylurea] gave a half-maximal inhibitory concentration (IC50) of 20 to 100 nM.

Consider `O=C(Nc1cnc(-n2cccn2)nc1O)Oc1ccccc1` [Compound 5-9, phenyl 4-hydroxy-2-(1H-pyrazol-1-yl)pyrimidin-5-ylcarbamate], for which the IC50 lay in the range of 100 to 10000 nM.

`O=C(Nc1cnc(-n2cccn2)nc1O)OC1CCCCC1` [Compound 5-10, cyclohexyl 4-hydroxy-2-(1H-pyrazol-1-yl)pyrimidin-5-ylcarbamate]: the 50% inhibitory concentration (IC50) lay in the range of 20 to 100 nM.

For `O=C(Nc1cnc(-n2cccn2)nc1O)OC1CCCC1` [Compound 5-11, cyclopentyl 4-hydroxy-2-(1H-pyrazol-1-yl)pyrimidin-5-ylcarbamate], the concentration for half-maximal inhibition (IC50) was in the range of 20 to 100 nM.

Molecule `CC(C)(C)OC(=O)Nc1cnc(-n2cccn2)nc1O` [Compound 5-12, tert-butyl 4-hydroxy-2-(1H-pyrazol-1-yl)pyrimidin-5-yl carbamate] showed a half-maximal inhibitory concentration (IC50) of 100 to 10000 nM.

In the case of `CCCCOC(=O)Nc1cnc(-n2cccn2)nc1O` [Compound 5-13, butyl 4-hydroxy-2-(1H-pyrazol-1-yl)pyrimidin-5-ylcarbamate], the IC50 was in the range of 100 to 10000 nM.

Consider `COc1ccc(OC(=O)Nc2cnc(-n3cccn3)nc2O)cc1` [Compound 5-14, 4-methoxyphenyl 4-hydroxy-2-(1H-pyrazol-1-yl)pyrimidin-5-ylcarbamate], for which the half-inhibitory concentration (IC50) is 20 to 100 nM.
